Tests used:
[1] = molecular target: human neutrophil elastase (Homo sapiens (Human), UniProt P08246); assay: Inhibition of human neutrophil elastase activity (MeO-Suc-Ala-Ala-Pro-Val-p-nitroanilide, OD405); type: biochemical; conditions: mean ± SEM (n = 3), 30° C., 30 minutes
[2] = system: acute lung injury induced by LPS; assay: LPS-induced acute lung injury: tissue pathological examination of lung; type: in vivo, mouse (C57BL/6); conditions: 100 mg/kg intraperitoneal; 6 hours after LPS; H&E, 400×
Method: The left lung tissue of the mice from each group was rinsed with PBS and was fixed using a fixating solution (10% paraformaldehyde prepared in PBS) for 24 hours, followed by subjecting to ethanol dehydration treatment. The dehydrated tissue was then embedded in paraffin and sliced, thereby obtaining a sample with 4 to 6 μm thickness. The paraffin was then removed from the sample. The tissue was then stained with hematoxylin and eosin, was observed using an optical microscope (IX81, Olympus) at 400× magnification, and an image thereof was captured using a digital camera (DP72, Olympus).

[3] = system: foot edema induced by human neutrophil elastase; assay: Foot edema induced by human neutrophil elastase in mice
[4] = system: acute lung injury induced by LPS; assay: LPS-induced acute lung injury: myeloperoxidase (MPO) activity in lung tissue; conditions: 100 mg/kg intraperitoneal, 60 minutes before LPS; 6 hours after LPS

Sequence of human neutrophil elastase (P08246 30-267): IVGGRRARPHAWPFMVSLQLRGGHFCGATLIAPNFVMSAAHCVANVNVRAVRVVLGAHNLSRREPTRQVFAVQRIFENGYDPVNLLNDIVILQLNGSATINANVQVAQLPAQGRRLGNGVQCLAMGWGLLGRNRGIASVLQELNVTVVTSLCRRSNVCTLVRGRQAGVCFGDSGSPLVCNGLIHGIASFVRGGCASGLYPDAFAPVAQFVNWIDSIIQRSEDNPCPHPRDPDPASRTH

SMILES | IC50 [1] [µM] | lung histology (alveolar edema, interstitial lung edema, leukocyte infiltration) [2] | edema degree (change in foot thickness) vs pathological control group ([3]; 50 mg/kg and 100 mg/kg intraperitoneal, 60 minutes before elastase, 10th-240th minute) | reduction of edema degree compared with Sivelestat ([3]; 100 mg/kg intraperitoneal, Sivelestat 100 mg/kg) | MPO activity in lung tissue vs pathological control group [4]
C/C(=N\OCCCO)c1ccccc1NS(=O)(=O)c1ccc(OC(=O)C(C)(C)C)cc1 [Compound 7, (E)-4-(N-(2-(1-(3-hydroxypropoxyimino)ethyl)phenyl)sulfamoyl)phenyl pivalate] | 159 ± 15.5 | – | – | – | –
C/C(=N\O)c1ccccc1NS(=O)(=O)c1ccc(OC(=O)C(C)(C)C)cc1 [Compound 1, (E)-4-(N-(2-(1(hydroxyimino)ethyl)phenyl)sulfamoyl)phenyl pivalate] | – | minor alveolar edema, interstitial lung edema, and leukocyte infiltration | relatively lower edema degree | superior effect in reduction of edema degree to Sivelestat | significantly reduced MPO activity
